Results taken from paper PMC8404199, “Structure–Activity Relationships of Triple-Action Platinum(IV) Prodrugs with Albumin-Binding Properties and Immunomodulating Ligands” (Journal of Medicinal Chemistry, 2021).
Where two headings read alike, the source gives them in different places. Values belong to the compound of their own block, whether it stands above or below them.

Experiments:
human SKOV3 cancer cells = assay: MTT cytotoxicity assay in SKOV3 cells; type: cell-based; settings: 72 h incubation
Description: (§1) The cells were seeded at 3500–6000 cells/well in 96-well plates depending on the proliferation rate of the respective cell line and allowed to recover for 24 h. Subsequently, the cells were treated at indicated concentrations for 48 or 72 h. Cells were additionally incubated with 5-fold equimolar concentrations of ascorbic acid to increase the reduction rate of the compounds. Cell viability was measured by the MTT-based vitality assay (EZ4U; Biomedica, Vienna, Austria), following the manufacturer’s recommendations.

albumin = target: T1, albumin (Bos taurus, UniProt P02769); assay: SEC-ICP-MS albumin binding and serum stability in fetal calf serum; type: in vitro ADME; settings: FCS + 150 mM phosphate buffer pH 7.4, 37 °C
T1 construct: FCS was purchased from Sigma-Aldrich and buffered with 150 mM phosphate buffer (pH 7.4); tissue Sigma-Aldrich; host or cells: fetal calf serum
Description: FCS was purchased from Sigma-Aldrich and buffered with 150 mM phosphate buffer (pH 7.4) to guarantee a stable pH. The maleimide-bearing platinum(IV) complexes were dissolved in 10% DMF in 150 mM phosphate buffer (pH 7.4) to 1 mM and diluted 1:10 in serum to obtain a final concentration of 100 μM. The samples were then incubated in the autosampler at 37 °C for 24 h and analyzed every 1 h. Between each sample, a pure water blank was measured. For SEC–ICP–MS measurements, an Agilent 1260 Infinity system coupled to an Agilent 7800 ICP–MS equipped with a dynamic reaction cell was used. Oxygen (purity 5.5, Messer Austria GmbH, Gumpoldskirchen, Austria) was used as reaction gas.

[1] = system: murine CT26 colon cancer cells; assay: MTT cytotoxicity assay in CT26 cells; type: cell-based
Description: (§2) Cells were additionally incubated with 5-fold equimolar concentrations of ascorbic acid to increase the reduction rate of the compounds. Cell viability was measured by the MTT-based vitality assay (EZ4U; Biomedica, Vienna, Austria), following the manufacturer’s recommendations.

[2] = log D7.4 determination by shake flask method and ICP-MS; type: physicochemical; settings: n-octanol/phosphate buffer pH 7.4, Pt by ICP-MS
Description: 50 mM stock solutions of the succinimide complexes in DMF were diluted in phosphate buffer (20 mM, pH 7.4, pre-saturated with n-octanol) to a final concentration of 50 μM drug and 0.1% DMF. The platinum content of these aqueous solutions was measured by ICP–MS (see above). The solutions were mixed 1:1 with n-octanol and shaken on a 360° rotatable rack for 3 h. The solutions were centrifuged for 5 min (860g, RT), the aqueous layers were carefully removed, and their Pt content was measured by ICP–MS. Experiments were performed and measured in duplicates, and averages were used for further calculations. log D7.4 values were calculated by the following equation [drawing 1]

[3] = system: human hepatic cell line (WRL68); assay: MTT cytotoxicity assay in non-malignant WRL68 cells; type: cell-based; settings: 72 h
Description: as §1

SKOV3 cell lysates = assay: Reduction and 1-MDT release in SKOV3 lysates; type: in vitro ADME, human; settings: 100 μM, 37 °C
Description: SKOV3 cells were grown in four T225 […] cell culture flasks to reach a high cell number. On the day of cell lysate isolation, cells were washed with PBS, scraped from the surface, and centrifuged. Each cell pellet was lysed in ∼160 μL lysis buffer (15 mM NaCl 0.5% Triton X, ultrapure) and incubated on ice for 1 h. The samples were then centrifuged for 15 min at 14,000 rpm (4 °C), and the cleared lysate was pooled and kept at −80 °C until analysis. Cell lysates were treated with 2 mM stock solutions of respective complexes in 4% DMF and phosphate buffer (100 mM, pH 7.4) to obtain a final compound concentration of 100 μM and incubated at 37 °C. After 0, 4, 24, and 72 h, three volume equivalents of cold MeOH were added to sample aliquots. Samples were stored at 4 °C for 10 min and centrifuged (15,080g, 4 °C, 10 min). LC–MS analysis of the supernatant was performed on an Agilent 1260 Infinity system using a Waters Atlantis T3 column (150 mm × 4.6 mm) and absorption detection at 230 nm, coupled to a Bruker amaZon SL ESI-IT mass spectrometer. Milli-Q water, containing 0.1% formic acid, and acetonitrile, containing 0.1% formic acid, were used as eluents. A gradient of 1–99% acetonitrile in 20 min was used.

SKOV3 cancer cells = assay: Long-term cytotoxicity assay (crystal violet) in SKOV3 cells; type: cell-based, human; settings: 168 h, crystal violet stain, mean ± SD
Description: SKOV3 cells were seeded in duplicates at 5000 cells/well in 24-well plates and allowed to recover for 24 h. Subsequently, the cells were treated at the indicated concentrations for 168 h. Cells were fixed with ice-cold methanol (20 min at 4 °C), washed with PBS, and stained with crystal violet. Subsequently, colony formation was inspected, and the fluorescence signal was detected using Typhoon Trio imager (GE Healthcare, Little Chalfont, UK) at 610/30 nm BP and analyzed by ImageJ software.

[4] = system: VM7 melanoma cancer cells; assay: MTT cytotoxicity assay in VM7 cells; type: cell-based, human; settings: 72 h
Description: as §1

[5] = UHPLC reduction experiments with L-ascorbic acid; type: physicochemical; settings: 1 mM complex
Description: The platinum(IV)–succinimide complexes were dissolved in 2% DMF in phosphate buffer (500 mM, pH 7.4) to a final concentration of 2 mM. The solutions were then mixed 1:1 with a 20 mM stock of L-ascorbic acid in phosphate buffer (500 mM, pH 7.4) to obtain final concentrations of 1 mM complex, 10 mM L-ascorbic acid, and 1% DMF. The samples were incubated at 20 °C and measured on a Dionex UltiMate 3000 RS UPLC system with a Waters Acquity UPLC BEH C18 column (3 × 50 mm, pore size 1.7 μm) and absorption detection at 220 nm. Data points were taken at t = 0 and every 30 min for 6 h.

[6] = system: human HCT116 colon cancer cells; assay: MTT cytotoxicity assay in HCT116 cells; type: cell-based
Description: as §2

[7] = system: human embryonic kidney cells (HEK293); assay: MTT cytotoxicity assay in non-malignant HEK293 cells; type: cell-based; settings: 72 h
Description: as §1

[8] = system: CT26 colon cancer allografts; assay: Anticancer activity against CT26 allografts in Balb/c mice; type: in vivo; settings: iv, equimolar to 9 mg/kg oxaliplatin, twice a week for 2 weeks
Description: Every day, the animals were monitored for body weight and the enhanced stress level, and the tumor size was measured using a caliper according to the formula length × width^2/2.

[9] = Organ distribution of platinum in SKOV3-bearing SCID mice; settings: 24 h after single iv dose equimolar to 9 mg/kg oxaliplatin
Description: For tissue digestion, approx. 25–50 mg of tissue was weighed into perfluoralkoxy tubes, and 2 mL of HNO3 and 100 μL H2O2 (30%, Suprapur, Merck, Darmstadt, Germany) were added. The solutions were placed on a hot plate and heated up for 7 h using a temperature program with a maximum of 200 °C. The liquids were transferred to 15 mL tubes with the remaining solution being removed by washing twice with 4 mL of ultrapure water.
Platinum concentrations were measured using an Agilent 7800 ICP-QMS instrument (Agilent Technologies, Tokyo, Japan) equipped with an Agilent SPS 4 autosampler (Agilent Technologies, Tokyo, Japan) and a MicroMist nebulizer at a sample uptake rate of approx. 0.2 mL/min. […] All of the measured samples were blank corrected (for the cell culture data, wells containing no cells were used). Elemental standard solutions were purchased from Labkings (Hilversum, The Netherlands). The instrument was tuned on a daily basis.
SKOV3 cells (1.5 × 10^6 cells in 50 μL serum-free medium) were injected subcutaneously into the right flank of male SCID mice. […] Then, the animals were sacrificed by cervical dislocation, and tumors and organs were collected for the measurement with ICP–MS. For plasma isolation, blood was collected in ethylenediaminetetraacetic acid (EDTA)-coated tubes and centrifuged for 10 min at 900g at 4 °C. Plasma was transferred to a new tube and centrifuged once more to remove residual red blood cells.

IDO = assay: LC-HRMS of 1-MDT and Trp metabolites in tumor tissue; type: in vivo, mice; settings: 24 h after treatment
Description: To 50 mg of tumor tissue, 50 μL of fully ^13C internal standard (labeled yeast extract prepared in 2 mL of H2O; ISOtopic solutions e.U., Vienna, Austria) and 950 μL of 80% MeOH (LC–MS grade, Sigma-Aldrich, Vienna, Austria) were added and homogenized in a Dounce-type glass tissue grinder. The homogenate was collected, the tissue homogenizer was washed twice with 400 μL 80% MeOH (LC–MS grade, Sigma-Aldrich, Vienna, Austria), and the washing solution was added to the homogenate. The samples were vortexed, centrifuged (14,000g, 4 °C, 20 min), and kept on dry ice until further processing. 500 μL of tumor sample aliquots was dried for direct LC–HRMS analysis.
All samples were resuspended in 100 μL of water (supernatant sample: same volume; tumor samples 5-fold concentration) and measured using a 12 min method based on reversed-phase chromatography (column: HSS T3, 1.8 μm, 2.1 × 150 mm, Waters) and high-resolution mass spectrometry (Orbitrap HF, Thermo). For quantification, multi-point calibration with external standard mixes (Kyn, Trp, and kynurenic acid) using co-eluting ^13C internal standards was performed and analyzed by Skyline 20.2.0.286. For 1-MDT, relative quantification based on ^13C Trp normalization was performed.

[10] = UHPLC reduction kinetics with dithiothreitol; type: physicochemical; settings: 1 mM complex, 10 mM DTT, 1% DMF, 500 mM phosphate buffer pH 7.4, 20 °C
Description: Figure S 3: Reduction kinetics of reference compounds with AA at 20°C , measured by UHPLC and UV absorption at 220 nm. A: Comparison of OAc/IPAEs with amino -group containing SucCa/IdoEs; B:
Reductive stability of reference compounds with no 1MDT -like ligand. AUC-values were normalized to t = 0. Experimental conditions: 1 mM complex, 10 mM AA in 1% DMF and 500 mM phosphate buffer […]
conditions: 1 mM complex, 10 mM DTT in 1% DMF and 500 mM phosphate buffer (pH 7.4). […]

T1 sequence (P02769 25-607): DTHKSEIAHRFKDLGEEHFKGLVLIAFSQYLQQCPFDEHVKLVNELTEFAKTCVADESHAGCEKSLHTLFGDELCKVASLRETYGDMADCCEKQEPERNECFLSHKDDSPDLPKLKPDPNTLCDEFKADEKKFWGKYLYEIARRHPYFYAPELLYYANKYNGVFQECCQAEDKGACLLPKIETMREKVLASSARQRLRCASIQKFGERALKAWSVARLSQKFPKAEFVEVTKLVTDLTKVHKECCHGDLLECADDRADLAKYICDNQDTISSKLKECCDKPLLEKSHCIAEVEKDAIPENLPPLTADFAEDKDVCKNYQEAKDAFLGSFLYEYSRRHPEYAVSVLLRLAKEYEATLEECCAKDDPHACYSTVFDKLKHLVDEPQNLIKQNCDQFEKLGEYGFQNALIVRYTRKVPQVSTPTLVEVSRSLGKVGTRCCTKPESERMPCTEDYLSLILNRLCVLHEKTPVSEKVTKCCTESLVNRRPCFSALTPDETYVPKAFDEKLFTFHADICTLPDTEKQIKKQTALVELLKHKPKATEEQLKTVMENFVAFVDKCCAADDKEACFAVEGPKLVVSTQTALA

log D7.4 [2]: –1.49 | still present as platinum(IV) species after 72 h (SKOV3 cell lysates): ~50% | complex intact after 6 h ([5]; 10-fold excess AA, phosphate buffer pH 7.4, 1% DMF, 20 °C): 90%
Compound: Cn1cc(CC(NC(=O)[O][Pt]23([O]C(=O)NCCCCCN4C(=O)CCC4=O)([NH]C4CCCCC4[NH]2)[O]C(=O)C(=O)[O]3)C(=O)O)c2ccccc21 [SucCa/IdoCa, (OC-6-24)-[(R)-(1-Carboxy-2-(1-methyl-1H-indol-3-yl)ethyl)carbamato][(1R,2R)-1,2-cyclohexanediamino][(5-(2,5-dioxopyrrolidin-1-yl)pentyl)carbamato]oxalatoplatinum(IV)]
IC50 (human SKOV3 cancer cells; with 5 eq. AA, read-out: SKOV3 IC50 values + 5 eq. AA, mean): > 100 µM | IC50 (human SKOV3 cancer cells; without AA, read-out: SKOV3 IC50 values, mean): > 100 µM | albumin binding in serum (in words) (albumin): significant binding to albumin (tR ~4 min) could be observed for any of the compounds | ratio (IC50 without AA / with AA), CT26 ([1]; 48 h): ≥2.6 | IC50 ([1]; 48 h incubation, with 5 equiv AA, read-out: CT26 IC50 values +AA, mean ± SD): 38.8 ± 3.84 µM | IC50 ([1]; 48 h incubation, without AA, read-out: CT26 IC50 values, mean ± SD): > 100 µM | ratio (IC50 without AA / with AA), CT26 ([1]; 72 h): 1.89 | IC50 ([1]; 72 h incubation, with 5 eq. AA, read-out: CT26 IC50 values + 5 eq. AA, mean): 43.6 µM | IC50 ([1]; 72 h incubation, without AA, read-out: CT26 IC50 values, mean): 82.5 µM | IC50 [3]: > 100 µM | IC50 (SKOV3 cancer cells): 54.6 ± 14.1 µM | IC50 [4]: > 100 µM | ratio (IC50 without AA / with AA), HCT116 ([6]; 48 h): ≥2.3 | IC50 ([6]; 48 h incubation, with 5 equiv AA, read-out: HCT116 IC50 values +AA, mean ± SD): 43.3 ± 2.1 µM | IC50 ([6]; 48 h incubation, without AA, read-out: HCT116 IC50 values, mean ± SD): > 100 µM | ratio (IC50 without AA / with AA), HCT116 ([6]; 72 h): ≥ 4 | IC50 ([6]; 72 h incubation, with 5 eq. AA, read-out: HCT116 IC50 values + 5 eq. AA, mean): 24.7 µM | IC50 [7]: 81.2 µM

Compound: Cn1cc(C[C@@H]([NH3+])C(=O)[O][Pt]2([O]C(=O)NCCCCCN3C(=O)C=CC3=O)[O]C(=O)C(=O)[O]2)c2ccccc21.N[C@@H]1CCCC[C@H]1N.O=C([O-])C(F)(F)F [MalCa/IdoEs, (OC-6-34)-[(R)-2-Ammonio-3-(1-methyl-1H-indol-3-yl)propanoato][(1R,2R)-1,2-cyclohexanediamino][5-(2,5-dioxo-2,5-dihydro-1H-pyrrol-1-yl)pentylcarbamato]oxalatoplatinum(IV) Trifluoroacetate]
anticancer activity against CT26 tumors (in words) [8]: significant anticancer activity | platinum levels in blood plasma [9]: 1.9 mg/kg | Platinum ratio tumor:kidney ([9]; ratio of mean platinum levels): 0.6 | Platinum ratio tumor:liver ([9]; ratio of mean platinum levels): 0.6 | kynurenic acid in tumors (in words) (IDO): enhanced signals

Compound: CC(=O)[O][Pt]12([O]C(=O)CCc3cn(C)c4ccccc34)([NH]C3CCCCC3[NH]1)[O]C(=O)C(=O)[O]2 [OAc/IPAEs, (OC-6-44)-Acetato[(1R,2R)-1,2-cyclohexanediamino][3-(1-methyl-1H-indol-3-yl)propanoato]oxalatoplatinum(IV)]
reduction in the presence of dithiothreitol (in words) [10]: stable under these conditions | reduction kinetics with AA (in words) ([5]; 10 mM AA, pH 7.4, 20 °C): comparable reduction kinetics to the carbamate-linked complexes
